Columns and labels:
Test in all cases: Large panel kinase profiling
Format in all cases: biochemical
Conditions in all cases: 1 μM test article, 1 mM ATP
[1] = target: AKT3 (Homo sapiens, UniProt Q9Y243)
Outline: (§1)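 One compound concentration (1 μM) was screened against each kinase at 1 mM ATP using PhosphoSens CSox-Sensor detection, at 30° C., with fluorescence read every 1 min (Ex 360 nm/Em 485 nm).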

[2] = target: T1, BRSK2 (Homo sapiens, UniProt Q8IWQ3)
T1 sequence (Q8IWQ3 1-736): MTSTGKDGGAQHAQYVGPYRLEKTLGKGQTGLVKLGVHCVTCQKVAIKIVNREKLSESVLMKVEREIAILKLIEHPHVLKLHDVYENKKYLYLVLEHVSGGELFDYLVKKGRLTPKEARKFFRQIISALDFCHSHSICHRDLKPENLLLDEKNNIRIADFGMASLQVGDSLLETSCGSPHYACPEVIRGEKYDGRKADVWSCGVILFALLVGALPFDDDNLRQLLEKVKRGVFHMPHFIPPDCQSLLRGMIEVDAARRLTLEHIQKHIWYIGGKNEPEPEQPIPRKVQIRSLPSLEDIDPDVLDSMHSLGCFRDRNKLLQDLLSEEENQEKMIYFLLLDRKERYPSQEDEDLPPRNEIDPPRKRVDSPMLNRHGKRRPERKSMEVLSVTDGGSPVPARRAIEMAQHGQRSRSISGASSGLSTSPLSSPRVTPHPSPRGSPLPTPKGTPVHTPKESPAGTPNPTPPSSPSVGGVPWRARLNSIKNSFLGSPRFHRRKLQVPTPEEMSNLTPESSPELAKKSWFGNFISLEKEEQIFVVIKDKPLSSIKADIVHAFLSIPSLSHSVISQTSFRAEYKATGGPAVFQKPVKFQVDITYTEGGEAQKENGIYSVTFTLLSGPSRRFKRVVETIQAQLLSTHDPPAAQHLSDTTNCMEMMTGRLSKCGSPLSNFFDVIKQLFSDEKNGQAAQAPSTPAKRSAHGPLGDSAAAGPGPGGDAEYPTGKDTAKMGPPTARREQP
Outline: as §1

[3] = target: T2, CDK1/B1 (Homo sapiens, UniProt P06493)
T2 construct: AssayQuant Technologies, Inc. (ran the panel)
Outline: as §1

[4] = target: T3, INSR (Homo sapiens, UniProt P06213)
T3 construct: AssayQuant Technologies, Inc. (service provider)
Outline: as §1

[5] = target: T4, TAOK1 (Homo sapiens, UniProt Q7L7X3)
T4 construct: AssayQuant Technologies, Inc. (contract assay)
T4 sequence (Q7L7X3 1-1001): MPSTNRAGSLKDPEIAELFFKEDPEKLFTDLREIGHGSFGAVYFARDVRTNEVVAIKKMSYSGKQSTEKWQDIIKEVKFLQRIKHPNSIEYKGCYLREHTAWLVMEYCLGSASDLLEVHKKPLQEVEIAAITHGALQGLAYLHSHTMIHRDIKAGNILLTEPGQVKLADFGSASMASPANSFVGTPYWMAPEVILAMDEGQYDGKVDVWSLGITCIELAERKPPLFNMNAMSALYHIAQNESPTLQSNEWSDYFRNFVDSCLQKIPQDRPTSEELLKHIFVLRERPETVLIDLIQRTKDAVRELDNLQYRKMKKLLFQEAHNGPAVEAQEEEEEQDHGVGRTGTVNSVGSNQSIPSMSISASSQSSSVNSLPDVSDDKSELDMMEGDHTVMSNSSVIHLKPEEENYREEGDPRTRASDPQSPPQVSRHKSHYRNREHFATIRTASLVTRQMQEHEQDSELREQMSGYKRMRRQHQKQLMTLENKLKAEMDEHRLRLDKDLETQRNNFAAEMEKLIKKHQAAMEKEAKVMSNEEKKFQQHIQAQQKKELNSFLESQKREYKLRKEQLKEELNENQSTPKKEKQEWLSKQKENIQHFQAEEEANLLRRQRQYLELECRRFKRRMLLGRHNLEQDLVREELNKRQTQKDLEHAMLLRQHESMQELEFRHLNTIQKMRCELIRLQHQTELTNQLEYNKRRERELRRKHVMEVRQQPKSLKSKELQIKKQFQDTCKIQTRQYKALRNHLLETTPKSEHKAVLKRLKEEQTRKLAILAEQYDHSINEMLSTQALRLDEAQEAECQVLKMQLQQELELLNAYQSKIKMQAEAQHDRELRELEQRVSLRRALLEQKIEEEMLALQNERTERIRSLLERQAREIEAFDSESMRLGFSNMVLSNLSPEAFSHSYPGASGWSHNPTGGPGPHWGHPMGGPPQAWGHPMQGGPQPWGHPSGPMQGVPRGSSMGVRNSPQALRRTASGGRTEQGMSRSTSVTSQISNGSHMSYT
Outline: as §1

T3 sequence (P06213 28-1382, species assumed): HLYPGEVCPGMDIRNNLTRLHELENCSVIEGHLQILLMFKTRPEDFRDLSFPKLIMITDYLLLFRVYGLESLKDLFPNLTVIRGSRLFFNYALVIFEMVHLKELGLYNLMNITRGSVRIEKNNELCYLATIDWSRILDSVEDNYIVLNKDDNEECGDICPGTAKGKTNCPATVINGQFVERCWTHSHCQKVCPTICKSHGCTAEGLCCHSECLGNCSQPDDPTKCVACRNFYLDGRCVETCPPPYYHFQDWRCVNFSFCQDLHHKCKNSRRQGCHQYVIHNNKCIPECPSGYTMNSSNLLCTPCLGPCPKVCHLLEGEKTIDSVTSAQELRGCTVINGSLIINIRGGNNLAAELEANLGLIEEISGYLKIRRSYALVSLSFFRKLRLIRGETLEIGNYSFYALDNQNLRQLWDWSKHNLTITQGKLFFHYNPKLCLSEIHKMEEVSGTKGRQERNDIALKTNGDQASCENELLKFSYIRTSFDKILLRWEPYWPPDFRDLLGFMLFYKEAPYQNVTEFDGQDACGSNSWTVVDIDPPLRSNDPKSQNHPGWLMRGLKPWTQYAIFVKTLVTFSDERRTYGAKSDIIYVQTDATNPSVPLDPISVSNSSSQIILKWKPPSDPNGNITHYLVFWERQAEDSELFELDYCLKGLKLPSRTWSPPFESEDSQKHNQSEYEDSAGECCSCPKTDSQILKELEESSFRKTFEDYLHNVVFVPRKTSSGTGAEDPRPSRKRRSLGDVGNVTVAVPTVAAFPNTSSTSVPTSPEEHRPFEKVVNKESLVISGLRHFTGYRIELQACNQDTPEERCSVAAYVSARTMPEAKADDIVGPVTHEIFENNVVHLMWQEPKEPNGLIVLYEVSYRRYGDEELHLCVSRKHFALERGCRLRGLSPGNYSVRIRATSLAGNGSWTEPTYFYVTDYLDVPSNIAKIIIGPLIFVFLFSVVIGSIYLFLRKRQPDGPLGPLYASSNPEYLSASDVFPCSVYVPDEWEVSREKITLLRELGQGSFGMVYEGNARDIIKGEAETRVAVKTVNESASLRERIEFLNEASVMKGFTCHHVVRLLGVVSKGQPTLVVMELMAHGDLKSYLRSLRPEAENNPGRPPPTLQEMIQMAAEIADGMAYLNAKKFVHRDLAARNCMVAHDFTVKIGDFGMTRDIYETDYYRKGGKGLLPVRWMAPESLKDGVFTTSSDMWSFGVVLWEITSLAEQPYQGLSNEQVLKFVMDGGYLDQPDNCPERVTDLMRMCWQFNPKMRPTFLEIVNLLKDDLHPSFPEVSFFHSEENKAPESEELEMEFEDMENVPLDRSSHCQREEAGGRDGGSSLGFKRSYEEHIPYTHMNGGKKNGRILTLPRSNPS
T2 sequence (P06493 whole entry, species assumed): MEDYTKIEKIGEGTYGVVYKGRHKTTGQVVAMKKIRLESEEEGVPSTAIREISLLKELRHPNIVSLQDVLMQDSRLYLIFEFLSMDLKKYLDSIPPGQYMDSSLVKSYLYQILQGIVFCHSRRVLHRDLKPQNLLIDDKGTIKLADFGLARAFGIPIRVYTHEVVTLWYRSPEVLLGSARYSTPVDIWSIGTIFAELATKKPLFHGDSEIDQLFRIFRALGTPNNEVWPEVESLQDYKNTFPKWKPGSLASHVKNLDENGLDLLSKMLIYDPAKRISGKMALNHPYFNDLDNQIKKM
T2 sequence (P14635 whole entry partner, species assumed): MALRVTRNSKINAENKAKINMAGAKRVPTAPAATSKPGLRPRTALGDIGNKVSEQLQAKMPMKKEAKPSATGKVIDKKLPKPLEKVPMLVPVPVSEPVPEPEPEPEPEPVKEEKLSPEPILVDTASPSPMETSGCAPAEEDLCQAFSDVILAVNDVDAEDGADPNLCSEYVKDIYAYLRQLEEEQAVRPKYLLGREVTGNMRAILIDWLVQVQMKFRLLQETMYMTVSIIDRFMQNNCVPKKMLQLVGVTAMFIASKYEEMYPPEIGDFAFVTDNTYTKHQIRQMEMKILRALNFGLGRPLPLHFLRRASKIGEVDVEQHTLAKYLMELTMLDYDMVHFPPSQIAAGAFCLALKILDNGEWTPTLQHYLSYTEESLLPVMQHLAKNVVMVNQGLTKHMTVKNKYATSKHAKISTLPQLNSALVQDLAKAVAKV
AKT3, sequence (Q9Y243 whole entry): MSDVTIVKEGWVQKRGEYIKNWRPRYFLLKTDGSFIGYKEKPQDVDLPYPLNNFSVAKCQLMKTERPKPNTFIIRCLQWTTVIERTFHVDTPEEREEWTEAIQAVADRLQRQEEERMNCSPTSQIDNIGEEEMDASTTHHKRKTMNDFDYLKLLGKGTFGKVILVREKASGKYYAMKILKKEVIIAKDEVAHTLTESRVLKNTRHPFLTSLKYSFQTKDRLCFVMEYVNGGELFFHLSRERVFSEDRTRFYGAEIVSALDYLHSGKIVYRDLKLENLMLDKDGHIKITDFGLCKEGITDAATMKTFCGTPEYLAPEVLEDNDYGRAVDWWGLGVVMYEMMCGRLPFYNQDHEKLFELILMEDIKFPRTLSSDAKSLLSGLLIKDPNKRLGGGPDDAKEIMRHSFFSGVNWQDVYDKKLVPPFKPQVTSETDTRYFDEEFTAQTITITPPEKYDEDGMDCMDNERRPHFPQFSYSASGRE

C=CC(=O)N1CCCC(c2c(F)cc(C(N)=O)c3[nH]c4c(c23)CCCCC4)C1 (single isomer, unassigned) [Compound 5-6]
inhibition at 1 µM [1]: -14.4% | inhibition at 1 µM [2]: -31.2% | inhibition at 1 µM [3]: -13.7% | inhibition at 1 µM [4]: 10.3% | inhibition at 1 µM [5]: 11.9%

C=CC(=O)N1CCC[C@@H](c2c(F)cc(C(N)=O)c3[nH]c4c(c23)CC2(CC4)CC2)C1 [Compound 6-2, (S)-5-(1-acryloylpiperidin-3-yl)-6-fluoro-1,2,4,9-tetrahydrospiro[carbazole-3,1′-cyclopropane]-8-carboxamide]
inhibition at 1 µM [1]: -16.3% | inhibition at 1 µM [2]: -5.7% | inhibition at 1 µM [3]: -9.5% | inhibition at 1 µM [4]: -6.6% | inhibition at 1 µM [5]: 9.5%

C=CC(=O)N1CCC[C@@H](c2c(F)cc(C(N)=O)c3[nH]c4c(c23)CCC4)C1 [Compound 10-2, (S)-8-(1-acryloylpiperidin-3-yl)-7-fluoro-1,2,3,4-tetrahydrocyclo-penta[b]indole-5-carboxamide]
inhibition at 1 µM [1]: -19.4% | inhibition at 1 µM [2]: 1.8% | inhibition at 1 µM [3]: -3.8% | inhibition at 1 µM [4]: -6% | inhibition at 1 µM [5]: 11.1%

From patent US20220009920A1 (GB005, Inc., priority 2020, published 2022)
